Test results reported in US7312248B2, “Control of parasites in animals by the use of novel trifluoromethanesulfonanilide oxime ether derivatives” (Schering-Plough Animal Health Corporation, priority 2004, dated 2007).
Like-named read-outs stand apart in the source and are kept apart here.

Tests used:
Type in all cases: in vivo
[1] = tested on: Brown Dog Tick (Rhipicephalus sanguineus); assay: Dose response protocol for topical application on brown dog ticks (LD50); settings: 24 h mortality
Method: e) Dose response protocol for topical application on brown dog ticks (Rhipicephalus sanguineus): The test determines the level of insecticidal activity of sample compounds or formulations when applied topically on brown dog ticks. Sample compounds were stored prior to use in a freezer (−5±1° C.), unless otherwise specified.
• Mortality: A tick is defined as dead after it gives no apparent response when touched lightly or gently breathed upon, while observed for 30 seconds. • LD50 (Lethal Dose 50): The dose of a topically applied treatment at which 50% of the dog ticks are killed. • Reference compound: To assess an experimental compound for significant acaricidal activity a single dose level is chosen, which is based upon known results from previous experiments using a commercially available active i.e., a reference compound. The reference compound selected is one in common use, and one that has a similar mode of action against the Brown Dog Tick (i.e., the test species). • Recovery container: A recovery container consists of a 500 ml round plastic container measuring 115 mm diameter and 70 mm height, with a tight fitting lid that has 10 small (˜1 mm) holes inserted for air exchange. A 90 mm diameter piece of filter paper was placed on the bottom of the container and moistened with 1 mL of de-stilled water.
Adult, mixed sex, Brown Dog Ticks (Rhipicephalus sanguineus) were reared as follows: (i) cultured, (ii) transferred unfed, to a testing laboratory, and (iii) then maintained under controlled conditions (i.e., temp. 18°±2° C., humidity 75±5% RH). The ticks used were selected for vigor prior to testing, i.e., capable of actively walking and responsive to being touched or gently breathed upon.
During the testing, the temperature was maintained at 25±1° C., and the humidity was ambient. Seven dose levels (concentrations) of sample compound, in the form of serial dilutions in acetone, were derived from a pilot study and covered a range that produced very low to very high mortality. Groups of ten ticks were treated topically (on the abdomen) with 1 μL of a single dose level of the sample compound. Each test was replicated four times, i.e., employing a total of 40 ticks per dose level of each sample compound. As a control, ten ticks were treated with solvent only (acetone) for each test. Following the treatment, the ticks were held in recovery containers maintained under appropriate rearing conditions for 24 hours. Mortality resulting from the treatments was recorded at 24 hours. […] Press, London (1971).]

[2] = tested on: cat flea (Ctenocephalides felis); assay: whole plant or invertebrate; settings: Ctenocephalides felis
Summary of the method: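 Adult C. felis (3-7 days post-emergence; 15 per flask, at least 4 replicates) exposed to a glass flask base dried 24 h after coating with compound in acetone at 1.26 μg/cm^2. Held at 25±1 °C, 75±5% humidity; mortality (immobile or unable to right) scored at 8, 24 and/or 48 h as percentage.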

[3] = tested on: cat flea (Ctenocephalides felis); assay: Ctenocephalides felis adulticide assay: dose response (LC50)
Text: c) Ctenocephalides felis Adulticide Assay: C. felis Dose Response
The purpose of this example was to determine the LC50 when cat fleas were contacted with a glass surface treated with sample compounds or formulations prepared as described above. Mortality of fleas was defined as follows: fleas were considered dead if they didn't move or were on their sides and unable to walk or right themselves. LC50: Lethal Concentration 50—concentration of glass surface treatment at which 50% of the cat fleas were killed. The test species was the cat flea (Ctenocephalides felis). The strain used was obtained from external suppliers as pupae and held in the laboratory under testing conditions until the adults had emerged. Fifteen (15) fleas were used in a minimum of four replicates for each dose level (total of 60 fleas per dose level). The insects were selected to be in the adult life stage, aged between 3 and 7 days post emergence.
The compounds to be tested were dissolved in acetone just prior to testing. Samples of compounds were stored in a refrigerator (5±1° C.) unless otherwise specified. During the mortality testing, the temperature was maintained at 25+1° C. Humidity was maintained at 75±5%. The base (area=159 mm^2) of a 100 mL glass Erlenmeyer (conical) flask provided the treatment surface. Flasks were pretreated with Coatasil™ glass treatment to maximise bio-availability of test compounds by preventing them from binding to the glass surface.
Six dose levels (concentrations) of test sample, in the form of a serial dilution, were derived from a pilot study and covered a range that produced very low to very high mortality. The base of the 100 mL Erlenmeyer flask was treated with 0.5 mL of test sample in acetone and gently swirled. This volume was sufficient to cover the base of the flask. Flasks were left to dry for 24 hours before flea exposure. Adult cat fleas were lightly anaesthetised by cooling and then placed into a sorting chamber, which allowed fleas to revive and jump into the Erlenmeyer flasks. Fifteen (15)adult cat fleas were collected in each flask. The top of the flasks were then covered in Parafilm™ and small holes made to allow gas exchange. A 0.5 mL volume of acetone was applied to the base of an Erlenmeyer flask and the testing proceeded in the same manner described above. Cat fleas in the treatment containers were held under testing conditions for 24 hours. Mortality resulting from the treatments was recorded at 8 and 24 hours.

Haemonchus contortus = Haemonchus contortus larvacidal (larval development) assay; settings: 144 h, read-out: Haemonchus contortus LD99
Summary of the method: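 Nematode eggs placed on agar containing compound (12 two-fold dilutions, final 0.024–50 μg/ml) and left 6 days to develop to L3. LD99 is the lowest concentration inhibiting development of 99% of larvae, derived from well titre (2^n−1) and top concentration.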

[4] = tested on: Brown Dog Tick (Rhipicephalus sanguineus); assay: Rapid screening protocol for topical application on brown dog ticks; settings: 48 h; Laboratory 2 F data
Method: d) Rapid Screening Protocol for Topical Application on Brown Dog Ticks (Rhipicephalus sanguineus)
The aim of the test was to determine the presence of significant acaricidal activity in sample compounds or formulations when applied topically on brown dog ticks. A tick was defined as dead if it gave no apparent response when touched lightly and observed for 1 minute. […] Both permethrin and fipronil were employed as reference compounds. The insect species tested was the Brown Dog Tick (Rhipicephalus sanguineus). Mixed sex adult ticks were used for tests. The strain used was cultured by von Berky Veterinary Services, Woody Point, QLD, AU and supplied as unfed adult ticks (mixed sex). Ticks were maintained in controlled conditions (temp. 18°+2° C., humidity 75±5% RH).
Temperature was maintained at 25±1° C. and the humidity was ambient. […] Ticks were each treated on the abdomen with 1 μL of a single dose level of test sample in acetone; ten ticks were treated with solvent only (acetone) in each test. Tests were replicated 4 times (total of 40 ticks treated). […]

[5] = 24 h, read-out: C. felis Mortality (%) 24 h, 24 h, Laboratory 1 A data
[6] = 8 h, read-out: C. felis Mortality (%) 8 h, 8 h, Laboratory 1 A data
[7] = 24 h, read-out: C. felis Mortality (%) 24 h, 24 h, Laboratory 2 B data
[8] = 48 h, read-out: C. felis Mortality (%) 48 h, 48 h, Laboratory 2 B data

SMILES | R. sanguineus LD50 [1] | mortality at 1.26 µg/cm2, 1.26 µg/cm2 [2, 5] | C. felis LC50 ([3]; Laboratory 1 C data) | IC99 (Haemonchus contortus) | mortality at 1.26 µg/cm2, 1.26 µg/cm2 [2, 6] | C. felis LC50 ([3]; Laboratory 2 D data) | R. sanguineus Mortality (%) 48 h [4] | mortality at 1.26 µg/cm2, 1.26 µg/cm2 [2, 7] | mortality at 1.26 µg/cm2, 1.26 µg/cm2 [2, 8]
CCON=C(c1ccccc1)c1cc(Cl)ccc1NS(=O)(=O)C(F)(F)F (single isomer, unassigned) [Compound 177, N-[4-chloro-2-(ethoxyiminophenylmethyl)phenyl]trifluoromethanesulfonamide] | 17.6 μg/tick | 100% | 0.3 μg/cm^2 |  |  |  |  |  | 
CC/C(=N\OCc1ccccc1C(F)(F)F)c1cc(Cl)ccc1NS(=O)(=O)C(F)(F)F [Compound 6] |  | 96% | 0.1 μg/cm^2 | 1.3 µg/mL | 69% | 0.03 μg/cm^2 | 82% |  | 
CC/C(=N\OCc1ccc(Br)cc1)c1cc(Cl)ccc1NS(=O)(=O)C(F)(F)F [Compound 75] |  | 78% | 0.3 μg/cm^2 | 0.9 µg/mL | 37% |  | 77% |  | 
CC/C(=N\OCc1ccc(C(F)(F)F)cc1C(F)(F)F)c1cc(Cl)ccc1NS(=O)(=O)C(F)(F)F [Compound 76, N-{2-[1-(2,4-bistrifluoromethylbenzyloxyimino)propyl]-4-chlorophenyl}trifluoromethanesulfonamide] |  |  | 0.2 μg/cm^2 | 0.3 µg/mL | 100% | 0.05 μg/cm^2 | 80% |  | 
CC/C(=N\OCC1CCCCC1)c1cc(Cl)ccc1NS(=O)(=O)C(F)(F)F [Compound 104, N-[4-chloro-2-(1-cyclohexylmethoxyiminopropyl)phenyl]trifluoromethanesulfonamide] |  | 100% | 0.3 μg/cm^2 | 10 µg/mL |  | 1.6 μg/cm^2 | 100% |  | 
CC/C(=N\Oc1ccc(Cl)cc1)c1cc(Cl)ccc1NS(=O)(=O)C(F)(F)F [Compound 128, N-{4-chloro-2-[1-(4-chlorophenoxyimino)propyl]phenyl}trifluoromethanesulfonamide] |  | 100% | 0.08 μg/cm^2 | 0.4 µg/mL |  | 0.05 μg/cm^2 | 85% |  | 
C/C(=N\Oc1cccc(Cl)c1)c1cc(Cl)ccc1NS(=O)(=O)C(F)(F)F [Compound 132] |  | 100% | 0.2 μg/cm^2 | 1.6 µg/mL |  |  | 80% |  | 
CC/C(=N\OC1CCCCC1)c1cc(Cl)ccc1NS(=O)(=O)C(F)(F)F [Compound 157] | 5.7 μg/tick | 100% | 0.3 μg/cm^2 |  |  |  |  |  | 
CCC(CC)O/N=C(\C)c1cc(Cl)ccc1NS(=O)(=O)C(F)(F)F [Compound 174] | 2.9 μg/tick | 100% | 0.1 μg/cm^2 |  |  |  |  |  | 
C/C(=N\OC1C=CCCC1)c1cc(Cl)ccc1NS(=O)(=O)C(F)(F)F (centres unmarked) [Compound 175] | 4.0 μg/tick | 100% | 0.1 μg/cm^2 |  |  |  |  |  | 
CCO/N=C(\c1ccccc1)c1cc(Cl)ccc1NS(=O)(=O)C(F)(F)F [Compound 178, N-[4-chloro-2-(ethoxyiminophenylmethyl)phenyl]trifluoromethanesulfonamide] |  | 96% | 0.3 μg/cm^2 |  |  |  | 85% |  | 
C/C(=N\OC(C)C)c1ccc(C(F)(F)F)cc1NS(=O)(=O)C(F)(F)F [Compound 235] | 2.3 μg/tick |  |  |  |  | 0.2^D μg/cm^2 |  | 100% | 100%
C=CCO/N=C(\C)c1ccc(C(F)(F)F)cc1NS(=O)(=O)C(F)(F)F [Compound 241, N-[2-(1-allyloxyiminoethyl)-5-trifluoromethylphenyl]trifluoromethanesulfonamide] | 1.9 μg/tick |  |  |  |  | 0.1^D μg/cm^2 |  | 100% | 100%
CCC(C)O/N=C(\C)c1cc(Cl)ccc1NS(=O)(=O)C(F)(F)F (centres unmarked) [Compound 242] | 3.1 μg/tick |  |  |  |  | 0.1^D μg/cm^2 |  | 100% | 100%
CC/C(=N\OC(C)CC)c1cc(Cl)ccc1NS(=O)(=O)C(F)(F)F (centres unmarked) [Compound 243] | 3.8 μg/tick |  |  |  |  | 0.1^D μg/cm^2 |  | 100% | 100%
CCCCO/N=C(\C)c1cc(Cl)ccc1NS(=O)(=O)C(F)(F)F [Compound 244] | 3.0 μg/tick |  |  |  |  | 0.07^D μg/cm^2 |  | 100% | 100%
